Source: US20210171948A1, “COMPOSITIONS AND METHODS FOR TARGETING GLYPICAN-2 IN THE TREATMENT OF CANCER” (Shepherd Therapeutics, Inc., priority 2019, published 2021)
d = 2'-deoxy (DNA); r = 2'-OH (RNA)

Tests used:
CHLA-90 cells [1] = experiment: Etoposide IC50 in siRNA-transfected cells, Cell Titer Glo 2.0 viability (Example 9); type: cell-based; details: for IC50: CHLA-90 cells transfected with the labelled siRNA, etoposide added 24 hours post transfection, 72 hour incubation
Description: (§1) GPC2 mRNA expression was reduced and changes in cell viability were assessed in multiple neuroblastoma cell lines. Cells were transfected with either a control siRNA or with GPC2 siRNA sequences 3, 5 or 7 from Table 7 using the RNAiMAX Lipofectamine kit (Invitrogen, Carlsbad, Calif.) as previously described in 96 wells for viability assays. Etoposide was added at increasing concentrations (0-15 uM) to transfected cells at 24 hours post transfection. Following a 72 hour incubation period, viability measurement were made using Cell Titer Glo 2.0.

CHP212 cells [2] = experiment: as above; type: cell-based; details: for IC50: CHP212 cells transfected with the labelled siRNA, etoposide added 24 hours post transfection, 72 hour incubation
Description: as §1

SK-N-BE2 cells [3] = experiment: as above; type: cell-based; details: for Data Summary: effect of knockdown on sensitivity to etoposide: SK-N-BE2; for IC50: SK-N-BE2 cells transfected with the labelled siRNA, etoposide added 24 hours post transfection, 72 hour incubation
Description: as §1

SH-SY5Y cells [4] = experiment: as above; type: cell-based; details: for Data Summary: effect of knockdown on sensitivity to etoposide: SH-SY5Y; for IC50: SH-SY5Y cells transfected with the labelled siRNA, etoposide added 24 hours post transfection, 72 hour incubation
Description: as §1

GPC2 mRNA [5] = experiment: GPC2 mRNA knockdown in neuroblastoma cell lines (Example 4); type: cell-based, human; details: for Degree of GPC2 knockdown among sequences 3, 5, 12-15: CHP212, SKNAS and SHSY5Y neuroblastoma cell lines, 96 hour incubation (FIG. 3A)
Description: GPC2 mRNA knockdown was assessed in multiple neuroblastoma cell lines. Cells were transfected with either a scrambled control siRNA, with GPC2 siRNA sequences 3 or 5 from Table 7, or with siRNA sequences generated by Dharmacon (sequences 12-15 from Table 7) using the RNAiMAX Lipofectamine kit (Invitrogen, Carlsbad, Calif.) as previously described. Following a 96 hour incubation period, total RNA samples were collected to compare knockdown efficiency and viability was measured in parallel plated cells.
The extent of GPC2 mRNA reduction was assessed with additional GPC2 siRNA sequences in the CHP212 neuroblastoma cell line. Cells were transfected with either a scrambled control siRNA or with GPC2 siRNA sequences 3 or 5, or with siRNA sequences 6-11 (Sigma) using the RNAiMAX Lipofectamine kit (Invitrogen, Carlsbad, Calif.) as previously described. Following a 96 hour incubation period, total RNA samples were collected and viability was measured in parallel plated cells.
The extent of GPC2 mRNA reduction (knockdown) and corresponding protein level expression changes were assessed in three neuroblastoma cell lines following siRNA knockdown of GPC2. The CHP212 neuroblastoma cell line (FIG. 5A and FIG. 5D), the SH-SY5Y neuroblastoma cell line (FIG. 5B and FIG. 5E) and the CHLA90 neuroblastoma cell line (FIG. 5C and FIG. 5F) were transfected with GPC2 siRNA sequences 5 and 7 from Table 7 and a scrambled control siRNA using the RNAiMAX Lipofectamine kit (Invitrogen, Carlsbad, Calif.) as previously described. Following a 24, 48, or 72 hour incubation period, cells were washed and total RNA was isolated for measuring GPC2 mRNA expression. For protein analysis, cells were fixed, immunostained using an antibody against GPC2 protein, protein expression was measured via flow cytometry. As shown, GPC2 mRNA knockdown was observed beginning at the 24 hr time point and lasted for at least 72 hours. GPC2 protein expression started to decrease at the 48 hr time point.

CHLA-90 cells [6] = experiment: Cyclophosphamide IC50 in siRNA-transfected cells, Cell Titer Glo 2.0 viability (Example 7); type: cell-based; details: for IC50: CHLA-90 cells transfected with the labelled siRNA, cyclophosphamide added 24 hr post transfection, 72 hour incubation
Description: as §1, with “reduced with the indicated siRNAs” for “reduced”, “Cyclophosphamide” for “Etoposide”, “(0-20” for “(0-15”, “hr” for “hours”, “measurements” for “measurement”

CHP212 cells [7] = experiment: as above; type: cell-based; details: for Data Summary: effect of knockdown on sensitivity to cyclophosphamide: CHP212; for IC50: CHP212 cells transfected with the labelled siRNA, cyclophosphamide added 24 hr post transfection, 72 hour incubation
Description: as §1, with “reduced with the indicated siRNAs” for “reduced”, “Cyclophosphamide” for “Etoposide”, “(0-20” for “(0-15”, “hr” for “hours”, “measurements” for “measurement”

SK-N-BE2 cells [8] = experiment: as above; type: cell-based; details: for Data Summary: effect of knockdown on sensitivity to cyclophosphamide: SK-N-BE2; for IC50: SK-N-BE2 cells transfected with the labelled siRNA, cyclophosphamide added 24 hr post transfection, 72 hour incubation
Description: as §1, with “reduced with the indicated siRNAs” for “reduced”, “Cyclophosphamide” for “Etoposide”, “(0-20” for “(0-15”, “hr” for “hours”, “measurements” for “measurement”

SH-SY5Y cells [9] = experiment: as above; type: cell-based; details: for Data Summary: effect of knockdown on sensitivity to cyclophosphamide: SH-SY5Y; for IC50: SH-SY5Y cells transfected with the labelled siRNA, cyclophosphamide added 24 hr post transfection, 72 hour incubation
Description: as §1, with “reduced with the indicated siRNAs” for “reduced”, “Cyclophosphamide” for “Etoposide”, “(0-20” for “(0-15”, “hr” for “hours”, “measurements” for “measurement”

CHLA-90 cells [10] = experiment: Doxorubicin IC50 in siRNA-transfected cells, Cell Titer Glo viability (Example 8); type: cell-based; details: for IC50: CHLA-90 cells transfected with the labelled siRNA, doxorubicin added 24 hours post transfection, 72 hour incubation
Description: as §1, with “with GPC-2” for “with GPC2”, “assays. Doxorubicin” for “assays. Etoposide”, “concentrations (0-5” for “concentrations (0-15”, “viability measurements” for “viability measurement”, “Titer Glo.” for “Titer Glo 2.0.”

CHP212 cells [11] = experiment: as above; type: cell-based; details: for Data Summary: effect of knockdown on sensitivity to doxorubicin: CHP212; for IC50: CHP212 cells transfected with the labelled siRNA, doxorubicin added 24 hours post transfection, 72 hour incubation
Description: as §1, with “with GPC-2” for “with GPC2”, “assays. Doxorubicin” for “assays. Etoposide”, “concentrations (0-5” for “concentrations (0-15”, “viability measurements” for “viability measurement”, “Titer Glo.” for “Titer Glo 2.0.”

SK-N-BE2 cells [12] = experiment: as above; type: cell-based; details: for IC50: SK-N-BE2 cells transfected with the labelled siRNA, doxorubicin added 24 hours post transfection, 72 hour incubation
Description: as §1, with “with GPC-2” for “with GPC2”, “assays. Doxorubicin” for “assays. Etoposide”, “concentrations (0-5” for “concentrations (0-15”, “viability measurements” for “viability measurement”, “Titer Glo.” for “Titer Glo 2.0.”

SH-SY5Y cells [13] = experiment: as above; type: cell-based; details: SH-SY5Y cells transfected with the labelled siRNA; doxorubicin added 24 hours post transfection, 72 hour incubation
Description: as §1, with “with GPC-2” for “with GPC2”, “assays. Doxorubicin” for “assays. Etoposide”, “concentrations (0-5” for “concentrations (0-15”, “viability measurements” for “viability measurement”, “Titer Glo.” for “Titer Glo 2.0.”

GPC2 mRNA [14] = experiment: GPC2 mRNA knockdown in neuroblastoma cell lines, representative data from a separate experiment (Tables 10-14); type: cell-based, human; set-up: concentration or dose not given beside the values
[15] = CHLA-90, compared to scrambled siRNA control
[16] = CHLA-136, compared to scrambled siRNA control
[17] = CHLA-172, compared to scrambled siRNA control
[18] = CHP212, compared to scrambled siRNA control
[19] = KELLY, compared to scrambled siRNA control
[20] = SH-SY5Y, compared to scrambled siRNA control
[21] = SK-N-BE2, compared to scrambled siRNA control
[22] = SKNAS, compared to scrambled siRNA control

Substance	IC50 (CHLA-90 cells [1]) [nM]	IC50 (CHP212 cells [2]) [nM]	Data Summary: effect of knockdown on sensitivity to etoposide (SK-N-BE2 cells [3])	IC50 (SK-N-BE2 cells [3]) [nM]	Data Summary: effect of knockdown on sensitivity to etoposide (SH-SY5Y cells [4])	IC50 (SH-SY5Y cells [4]) [nM]	Degree of GPC2 knockdown among sequences 3, 5, 12-15 (GPC2 mRNA [5])	IC50 (CHLA-90 cells [6]) [nM]	Data Summary: effect of knockdown on sensitivity to cyclophosphamide (CHP212 cells [7])	IC50 (CHP212 cells [7]) [nM]	Data Summary: effect of knockdown on sensitivity to cyclophosphamide (SK-N-BE2 cells [8])	IC50 (SK-N-BE2 cells [8]) [nM]	Data Summary: effect of knockdown on sensitivity to cyclophosphamide (SH-SY5Y cells [9])	IC50 (SH-SY5Y cells [9]) [nM]	IC50 (CHLA-90 cells [10]) [nM]	Data Summary: effect of knockdown on sensitivity to doxorubicin (CHP212 cells [11])	IC50 (CHP212 cells [11]) [nM]	IC50 (SK-N-BE2 cells [12]) [nM]	IC50 (SH-SY5Y cells [13]) [nM]	% KD; percent GPC2 mRNA reduction (knockdown) (GPC2 mRNA [14]; [15]) [%]	other results
GPC2 siRNA 3: siRNA duplex: sense CCUGCUUGGACCUCGAUAA[dT][dT] (SEQ ID NO: 207), anti-sense UUAUCGAGGUCCAAGCAGG[dT][dT] (SEQ ID NO: 208) (sense CCUGCUUGGACCUCGAUAANN; antisense UUAUCGAGGUCCAAGCAGGNN; 3' dTdT overhangs, chemistry not fully specified; listed as Homo sapiens)	350	30	7 increases sensitivity to etoposide	1000	7 increases sensitivity to etoposide	80	greater	30000	increases sensitivity to	870	increases sensitivity to	2410	increases sensitivity to	1500	350	does not increase sensitivity	30	1000	80	50	% KD; percent GPC2 mRNA reduction (knockdown) (GPC2 mRNA [14]; [16]): 25%; % KD; percent GPC2 mRNA reduction (knockdown) (GPC2 mRNA [14]; [17]): 5%; % KD; percent GPC2 mRNA reduction (knockdown) (GPC2 mRNA [14]; [18]): 60%; % KD; percent GPC2 mRNA reduction (knockdown) (GPC2 mRNA [14]; [19]): 65%; % KD; percent GPC2 mRNA reduction (knockdown) (GPC2 mRNA [14]; [20]): 55%; % KD; percent GPC2 mRNA reduction (knockdown) (GPC2 mRNA [14]; [21]): 55%; % KD; percent GPC2 mRNA reduction (knockdown) (GPC2 mRNA [14]; [22]): 40%
GPC2 siRNA 5: siRNA duplex: sense CUCAGUAGCCCAGCACUCU[dT][dT] (SEQ ID NO: 211), anti-sense AGAGUGCUGGGCUACUGAG[dT][dT] (SEQ ID NO: 212) (sense CUCAGUAGCCCAGCACUCUTT; antisense AGAGUGCUGGGCUACUGAGTT; sugars from the 5' end r19 d2, backbone not given here; listed as Homo sapiens)	250	20	7 increases sensitivity to etoposide	20	7 increases sensitivity to etoposide	50	greater	20000	increases sensitivity to	450	increases sensitivity to	1800	increases sensitivity to	300	250	does not increase sensitivity	20	20	50	55	Data Summary: effect of knockdown on sensitivity to etoposide (CHLA-90 cells [1]; CHLA-90): increases sensitivity to etoposide; Data Summary: effect of knockdown on sensitivity to etoposide (CHP212 cells [2]; CHP212): increases sensitivity to etoposide; Time for which reduced GPC2 mRNA expression was sustained (GPC2 mRNA [5]; CHLA90 neuroblastoma cells (FIG. 5C)): 72 h; Time point at which GPC2 mRNA knockdown was first observed (GPC2 mRNA [5]; CHP212, SH-SY5Y and CHLA90 neuroblastoma cell lines): 24 h; Degree of GPC2 knockdown among sequences 3, 5, 6-11 (GPC2 mRNA [5]; CHP212 neuroblastoma cell line, 96 hour incubation (FIG. 4A)): greater; Time for which reduced GPC2 mRNA expression was sustained (GPC2 mRNA [5]; CHP212 neuroblastoma cells (FIG. 5A)): 72 h; Time for which reduced GPC2 mRNA expression was sustained (GPC2 mRNA [5]; SH-SY5Y neuroblastoma cells (FIG. 5B)): 72 h; Data Summary: effect of knockdown on sensitivity to cyclophosphamide (CHLA-90 cells [6]; CHLA-90): increases sensitivity to; Data Summary: effect of knockdown on sensitivity to doxorubicin (CHLA-90 cells [10]; CHLA-90): increases sensitivity to; Data Summary: effect of knockdown on sensitivity to doxorubicin (SK-N-BE2 cells [12]; SK-N-BE2): increases sensitivity to; % KD; percent GPC2 mRNA reduction (knockdown) (GPC2 mRNA [14]; [16]): 35%; % KD; percent GPC2 mRNA reduction (knockdown) (GPC2 mRNA [14]; [17]): 8%; % KD; percent GPC2 mRNA reduction (knockdown) (GPC2 mRNA [14]; [18]): 70%; % KD; percent GPC2 mRNA reduction (knockdown) (GPC2 mRNA [14]; [19]): 75%; % KD; percent GPC2 mRNA reduction (knockdown) (GPC2 mRNA [14]; [20]): 75%; % KD; percent GPC2 mRNA reduction (knockdown) (GPC2 mRNA [14]; [21]): 68%; % KD; percent GPC2 mRNA reduction (knockdown) (GPC2 mRNA [14]; [22]): 70%
